The Ki is the dissociation constant of the complex between target and ligand, obtained from inhibition or displacement. Lower therefore signals a stronger hold on the target. In general, IC50 refers to the concentration that inhibits the measured activity by half. Low readings indicate inhibition by little substance, high ones a need for much substance. One may read the residual activity as the signal under treatment as a percentage of the control signal.

Data set [1] has as its target T1, Solute carrier organic anion transporter family member 1B3 (Homo sapiens, UniProt Q9NPD5).
T1 sequence (Q9NPD5 whole entry): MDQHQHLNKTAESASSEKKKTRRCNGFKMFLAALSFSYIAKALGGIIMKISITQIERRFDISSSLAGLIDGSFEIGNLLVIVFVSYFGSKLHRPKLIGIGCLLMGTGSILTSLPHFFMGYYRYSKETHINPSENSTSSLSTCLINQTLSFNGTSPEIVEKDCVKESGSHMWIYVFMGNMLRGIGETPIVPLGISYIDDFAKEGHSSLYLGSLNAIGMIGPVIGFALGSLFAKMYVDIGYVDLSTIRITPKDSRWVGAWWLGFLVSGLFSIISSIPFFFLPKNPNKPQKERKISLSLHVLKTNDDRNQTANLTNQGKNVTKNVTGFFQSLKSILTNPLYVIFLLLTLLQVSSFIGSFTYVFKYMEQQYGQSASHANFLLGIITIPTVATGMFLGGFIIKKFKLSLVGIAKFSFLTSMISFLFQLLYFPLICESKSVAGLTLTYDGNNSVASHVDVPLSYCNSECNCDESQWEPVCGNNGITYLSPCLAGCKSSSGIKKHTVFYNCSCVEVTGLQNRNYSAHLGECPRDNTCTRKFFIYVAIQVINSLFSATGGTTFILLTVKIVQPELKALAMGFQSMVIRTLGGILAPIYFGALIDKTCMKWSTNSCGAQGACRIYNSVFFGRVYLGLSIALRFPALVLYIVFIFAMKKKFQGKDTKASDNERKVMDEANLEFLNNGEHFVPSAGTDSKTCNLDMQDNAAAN

In data set [2] the target is T2, Solute carrier organic anion transporter family member 1B1 (Homo sapiens, UniProt Q9Y6L6).
T2 sequence (Q9Y6L6 whole entry): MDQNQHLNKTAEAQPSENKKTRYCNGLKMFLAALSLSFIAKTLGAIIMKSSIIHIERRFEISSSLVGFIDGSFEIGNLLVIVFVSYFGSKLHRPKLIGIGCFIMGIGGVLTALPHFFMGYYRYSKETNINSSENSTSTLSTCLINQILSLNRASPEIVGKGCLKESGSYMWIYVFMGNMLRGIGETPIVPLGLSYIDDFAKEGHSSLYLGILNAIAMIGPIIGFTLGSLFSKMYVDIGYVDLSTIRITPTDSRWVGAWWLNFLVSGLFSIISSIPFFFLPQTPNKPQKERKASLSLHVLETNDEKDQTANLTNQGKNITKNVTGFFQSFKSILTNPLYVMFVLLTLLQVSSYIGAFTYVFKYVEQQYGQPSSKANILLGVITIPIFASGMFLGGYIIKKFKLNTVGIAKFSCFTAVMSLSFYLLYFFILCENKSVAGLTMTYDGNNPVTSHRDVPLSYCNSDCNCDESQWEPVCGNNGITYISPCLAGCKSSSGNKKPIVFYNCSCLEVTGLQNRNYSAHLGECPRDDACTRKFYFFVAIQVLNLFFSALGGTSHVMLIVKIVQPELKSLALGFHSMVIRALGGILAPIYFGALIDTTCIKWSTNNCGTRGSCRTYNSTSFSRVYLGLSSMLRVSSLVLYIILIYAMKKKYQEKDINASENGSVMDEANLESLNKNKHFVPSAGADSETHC

In data set [3] the target is T2, Solute carrier organic anion transporter family member 1B1. Conditions: chinese hamster, cho, 10 µM.
Data set [4] has as its target T1, Solute carrier organic anion transporter family member 1B3. This is another data set of the same source.
Data set [5] has the same target. The note with it: chinese hamster, cho, 10 µM.
Data set [6] has as its target T2, Solute carrier organic anion transporter family member 1B1. The source holds these as a separate data set.

Take `CCCCCCCCCc1ccc(OCCOCCOCCOCCOCCOCCOCCOCCOCCO)cc1` [NONOXYNOL 9]: the values for the Ki in data set [1] and in data set [6] were 2870 nM and 1920 nM, respectively. In addition, the IC50 in data set [2] was 3470 nM; in data set [4], 3720 nM. Further, the residual activity turned out to be 32.74% in data set [3] and 27.96% in data set [5].
`CC1(C)[C@@H](O)C=C[C@]2(C)[C@H]3CC[C@@]4(C)[C@H](c5ccoc5)OC(=O)[C@H]5O[C@]54[C@]3(C)C(=O)C[C@@H]12`: the Ki is 3810 nM in data set [1] and 1330 nM in data set [6]. Moreover, the IC50 is 2400 nM in data set [2] and 5010 nM in data set [4]. Also, the figures for the residual activity in data set [3] and in data set [5] were 10.83% and 22.22%, respectively.
With `C[C@H]1CC[C@@]2(OC1)O[C@H]1C[C@H]3[C@@H]4CC[C@@H]5C[C@@H](O)CC[C@]5(C)[C@H]4CC[C@]3(C)[C@H]1[C@@H]2C` [SARSASAPOGENIN], the Ki in data set [1] was determined as 80 nM; in data set [6], 130 nM. Moreover, the half-inhibitory concentration (IC50) in data set [2] was 245 nM; in data set [4] it was 105 nM. Moreover, the residual activity in data set [3] is listed as 50.78%; in data set [5], 25.69%.
As for `CC1(C)CC[C@]2(C(=O)O)CC[C@]3(C)C(=CC[C@@H]4[C@@]5(C)CC[C@H](O)[C@@](C)(CO)[C@@H]5CC[C@]43C)[C@@H]2C1` [HEDERAGENIN], the Ki in data set [1] is 680 nM; in data set [6] it was 2110 nM. In addition, the IC50 is 3800 nM in data set [2] and 891 nM in data set [4]. Further, the residual activity is on record as 40.18% in data set [3] and 18.59% in data set [5].
As for `CCC(C)C(=O)O[C@@H]1C[C@@]2(C)[C@H](c3ccoc3)OC(=O)CC23OC2(C)O[C@]14[C@]1(C)[C@@H](CC(=O)OC)C5(C)CC1(O)[C@](O)(C5OC(=O)C1(C)OC1C)[C@@H](OC(C)=O)[C@]34O2` (stereo partly drawn) [UTILIN], the Ki in data set [1] worked out at 600 nM; in data set [6], 380 nM. The IC50 in data set [2] was 676 nM; in data set [4] it was 776 nM. Also, the values for the residual activity in data set [3] and in data set [5] were -3.778% and 2.658%, respectively.
As to `COC(=O)c1c(C)c2c(c(C)c1O)OC(=O)c1c(C)c(Cl)c(O)c(Cl)c1O2` [LEOIDIN], the Ki worked out at 1840 nM in data set [1] and 80 nM in data set [6]. The IC50 in data set [2] is 145 nM; in data set [4], 2400 nM. Moreover, the residual activity in data set [3] was determined as 7.804%; in data set [5] it was 14.63%.
For the compound `CC(=O)O[C@@H]1C[C@H]2C(C)(C)C(=O)CC[C@]2(C)[C@H]2CC[C@]3(C)C(=CC(=O)O[C@H]3c3ccoc3)[C@@]21C`, the Ki is 5990 nM in data set [1] and 1940 nM in data set [6]. The IC50 in data set [2] was 3550 nM; in data set [4], 7760 nM. Moreover, the residual activity turned out to be 22.81% in data set [3] and 54.65% in data set [5].
With `O=C(O)c1cc2ccccc2c(Cc2c(O)c(C(=O)O)cc3ccccc23)c1O.OCCOCCN1CCN(C(c2ccccc2)c2ccc(Cl)cc2)CC1` [HYDROXYZINE PAMOATE], the Ki worked out at 940 nM in data set [1] and 450 nM in data set [6]. Also, the 50% inhibitory concentration (IC50) in data set [2] is 813 nM; in data set [4], 1230 nM. For the same compound, the results for the residual activity in data set [3] and in data set [5] were 12.16% and 13.57%, respectively.
In the case of `C/C=C(\C)C(=O)O[C@H]1[C@H](OC(C)=O)[C@@]2(CO)C(CC1(C)C)C1=CC[C@@H]3[C@@]4(C)CC[C@H](O[C@@H]5O[C@H](C(=O)O)[C@@H](O[C@@H]6O[C@H](CO)[C@@H](O)[C@H](O)[C@H]6O)[C@H](O)[C@H]5O[C@@H]5O[C@H](CO)[C@@H](O)[C@H](O)[C@H]5O)[C@H](CO)C4CC[C@@]3(C)[C@@]1(C)C[C@H]2O` (stereo partly drawn) [beta-ESCIN], the results for the Ki in data set [1] and in data set [6] were 2610 nM and 780 nM, respectively. For the same compound, the IC50 in data set [2] was 1410 nM; in data set [4] it was 3390 nM. Moreover, the residual activity in data set [3] was 11.04%; in data set [5], 11.66%.
As for `CC(=O)O[C@@H]1CC[C@]2(C)[C@H](C[C@@H](OC(C)=O)[C@]3(C)C4=CC(=O)O[C@H](c5ccoc5)[C@@]4(C)CC[C@@H]23)C1(C)C`, the Ki in data set [1] worked out at 1080 nM; in data set [6], 440 nM. In addition, the concentration for half-maximal inhibition (IC50) in data set [2] was 813 nM; in data set [4], 1410 nM. Further, the results for the residual activity in data set [3] and in data set [5] were 18.95% and 8.019%, respectively.
Turning to `CCCc1nc(C(C)(C)O)c(C(=O)OCc2oc(=O)oc2C)n1Cc1ccc(-c2ccccc2-c2nnn[nH]2)cc1` [OLMESARTAN MEDOXOMIL], the values for the inhibition constant (Ki) in data set [1] and in data set [6] were 750 nM and 540 nM, respectively. For the same compound, the IC50 in data set [2] and in data set [4] was 977 nM in each case. Also, the residual activity amounted to 15.39% in data set [3] and 9.702% in data set [5].
Take `CC1(C)C(=O)CC[C@]2(C)[C@@H]1C[C@@H](O)[C@]1(C)C3=CC(=O)O[C@H](c4ccoc4)[C@@]3(C)CC[C@@H]21`: the values for the Ki in data set [1] and in data set [6] were 2550 nM and 3440 nM, respectively. In addition, the IC50 in data set [2] was 6310 nM; in data set [4] it was 3310 nM. Further, the residual activity in data set [3] turned out to be 54.82%; in data set [5] it was 48.28%.
In the case of `CCCCCc1c2c(cc(O)c1C(=O)O)OC(=O)c1c(cc(OC)cc1C(=O)CCCC)O2` [LOBARIC ACID], the Ki was found to be 1250 nM in data set [1] and 400 nM in data set [6]. Besides, the figures for the IC50 in data set [2] and in data set [4] were 724 nM and 1620 nM, respectively. Further, the figures for the residual activity in data set [3] and in data set [5] were 18.31% and 7.572%, respectively.
In the case of `CCCCC/C=C\C/C=C\C/C=C\C/C=C\CCCC(=O)O` [ARACHIDONIC ACID], the Ki amounted to 820 nM in data set [1] and 330 nM in data set [6]. Also, the half-maximal inhibitory concentration (IC50) in data set [2] was 603 nM; in data set [4] it was 1070 nM. The residual activity in data set [3] was 23.4%; in data set [5], 5.402%.
Consider `CC(=O)O[C@@H]1C[C@@H]2C(C)(C)C(=O)C=C[C@@]2(C)[C@@H]2CC[C@@]3(C)C(=CC(=O)O[C@@H]3c3ccoc3)[C@@]12C`, for which the Ki in data set [1] came out at 2890 nM; in data set [6], 830 nM. Besides, the IC50 in data set [2] was 1510 nM; in data set [4], 3800 nM. Moreover, the values for the residual activity in data set [3] and in data set [5] were 8.693% and 22.73%, respectively.
`CCCc1nc2c(C)cc(-c3nc4ccccc4n3C)cc2n1Cc1ccc(-c2ccccc2C(=O)O)cc1`: the Ki in data set [1] turned out to be 960 nM; in data set [6] it was 1030 nM. Also, the figures for the concentration for half-maximal inhibition (IC50) in data set [2] and in data set [4] were 1860 nM and 1260 nM, respectively. For the same compound, the residual activity was found to be 77.57% in data set [3] and 41.88% in data set [5].
Consider `O=C(O[C@@H]1Cc2c(O)cc(O)cc2O[C@@H]1c1ccc(O)c(O)c1)c1cc(O)c(O)c(O)c1` [EPICATECHIN GALLATE], for which the figures for the Ki in data set [1] and in data set [6] were 3460 nM and 2070 nM, respectively. Further, the figures for the IC50 in data set [2] and in data set [4] were 3800 nM and 4470 nM, respectively. For the same compound, the results for the residual activity in data set [3] and in data set [5] were 46.4% and 25.25%, respectively.
Regarding `C[C@@H]1O[C@H](O[C@@H]2[C@@H](O)[C@H](O[C@@H]3[C@@H](O)[C@@H](O)[C@@H](O[C@H]4[C@@H](OC(=O)[C@]56CCC(C)(C)C[C@@H]5C5=CC[C@@H]7[C@@]8(C)CC[C@H](O[C@@H]9O[C@H](CO)[C@@H](O)[C@H](O)[C@H]9O)C(C)(C)[C@@H]8CC[C@@]7(C)[C@]5(C)C[C@H]6O)OC[C@@H](O)[C@@H]4O)O[C@H]3C)OC[C@H]2O)[C@H](O)[C@H](O)[C@H]1O`, the inhibitory constant (Ki) was 4020 nM in data set [1] and 1820 nM in data set [6]. In addition, the IC50 in data set [2] was 3310 nM; in data set [4] it was 5250 nM. Further, the residual activity in data set [3] amounted to 25.14%; in data set [5], 17.42%.

The values above are taken from ChEMBL document CHEMBL3039007, “Structure-based identification of OATP1B1/3 inhibitors” (Mol Pharmacol, 2013).
